Reference: US5873359A, “Methods and devices for treating pulmonary vasoconstriction and asthma” (The General Hospital Corporation, priority 1994, dated 1999)

Experiments:
Stability of SNAP = assay type: physicochemical; conditions: crystals at 0° C., up to 120 days, absorbance at 595 nm
Source text: Alternatively, a mammal (in particular, a human) with or at risk of developing bronchoconstriction (e.g., asthma) or reversible pulmonary vasoconstriction may be treated with a therapeutically-effective amount of a nitric oxide-releasing compound. Known nitric oxide-releasing compounds (also referred to as nitric oxide-donor or nitric oxide-generating compounds) useful in the methods and devices of the invention can be divided into three categories: (a) nitroso or nitrosyl compounds (e.g., S-nitroso-N-acetylpenicillamine, S-nitroso-L-cysteine, and nitrosoguanidine) characterized by an --NO moiety that is spontaneously released or otherwise transferred from the compound under physiological conditions such as obtain in the lung; (b) compounds in which NO is a ligand on a transition metal complex, and as such is readily released or transferred from the compound under physiological conditions (e.g., nitroprusside, NO-ferredoxin, or an NO-heme complex); and (c) nitrogen-containing compounds which are metabolized by enzymes endogenous to the respiratory and/or vascular system to produce the NO radical (e.g., arginine, glyceryl trinitrate, isoamyl nitrite, inorganic nitrite, azide, and hydroxylamine). […]

[1] = test system: experimentally-elevated PA pressure; test: SNAP inhalation in sheep with experimentally-elevated PA pressure; assay type: in vivo; conditions: inhalation 1.3 mg/kg
Source text: This method will provide a longer-lasting beneficial effect than briefly inhaling gaseous NO, as the deposited NO-releasing compound would slowly release NO over a relatively long period of time. Formulation and dosage of a selected NO-releasing compound can be determined without undue experimentation by one of ordinary skill in the art. As one example, a typical single inhaled dose of an NO-releasing compound such as S-nitroso-N-acetylpenicillamine (SNAP) or S-nitrosocysteine in dry powder form could range from 60 to 650 μg of the active compound (NO) per kg bodyweight, for approximately an hour of dilation.

[2] = test system: methacholine bronchoconstriction; test: SNAP aerosol during methacholine bronchoconstriction; assay type: in vivo, Hartley strain guinea pigs; conditions: nebulized, 20 breaths, 5 guinea pigs (FIG. 16)
Experimental: Male Hartley strain guinea pigs (300-440g body wt) were anesthetized with α-chloralose (50 mg/kg) and urethane (500 mg/kg) (Drazen et al., J. Appl. Physiol. 48:613-618, 1980). A tracheostomy was performed, and the animals were intubated with a tubing adaptor (ID 1.65 mm) and ventilated with a small animal ventilator (Harvard Apparatus, a division of Ealing Scientific, Natick, Mass.) at 8 ml/kg and 60 breaths/min. A jugular vein was cannulated for intravenous administration of drugs. The chest was opened by bilateral excision of a portion of the ribs anteriorly so that the lungs were exposed to atmospheric pressure (Shore and Drazen, J. Appl. Physiol. 67:2504-2511, 1989). A positive end expiratory pressure of 3-4 cmH2 O was provided.
Guinea pigs were then placed inside a plethysmograph (Amdur and Mead, Am. J. Physiol. 192:363-368, 1958), that was connected to a large reservoir containing copper mesh to maintain the plethysmograph isothermal. Plethysmograph pressure was measured with a differential pressure transducer (Celesco, Canoga Park, Calif.); the opposite side of this transducer was connected to a similar reservoir. Pressure at the airway opening was measured from a side tap in the tracheal canula. Transpulmonary pressure was measured with a differential pressure transducer (Celesco) as the difference between airway opening pressure and the pressure inside the plethysmograph. […]

[3] = cited from earlier work

degradation on storage (Stability of SNAP): without detectable degradation
Structure (SMILES): CC(=O)N[C@H](C(=O)O)C(C)(C)SN=O (racemic) [SNAP, S-nitroso-N-acetylpenicillamine]
PA pressure [1]: prolonged reduction in PA pressure | duration of reduction of lung resistance [2]: about 15 minutes | lung resistance [2]: prompt and profound reduction of lung resistance | stability of solid form ([3]; solid form): stable in its solid form | decomposition to release NO ([3]; under physiological conditions): readily decomposes to release NO
